Source: patent publication US9850225B2, “Compounds useful as immunomodulators” (BRISTOL-MYERS SQUIBB COMPANY, priority 2014, dated 2017)

biological target: PD-1/PD-L1 interaction (PD-1-Ig / PD-L1-His) (Homo sapiens (Human), UniProt Q9NZQ7); experiment: PD-1/PD-L1 Homogenous Time-Resolved Fluorescence (HTRF) binding assay; conditions: PD-1/PD-L1 HTRF binding assay; numeric value; read-out: Range or IC50
Method in brief: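 Human PD-L1-His (10 nM final) was pre-incubated with inhibitor for 15 min, then PD-1-Ig (20 nM final) was added for a further 15 min in dPBS with 0.1% BSA and 0.05% Tween-20. Binding was detected by HTRF using Eu-cryptate anti-Ig (1 nM) and APC anti-His (20 nM).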

Chain of PD-1/PD-L1 interaction (PD-1-Ig / PD-L1-His) (Q9NZQ7 other isoform, or with tags, fused parts or gaps): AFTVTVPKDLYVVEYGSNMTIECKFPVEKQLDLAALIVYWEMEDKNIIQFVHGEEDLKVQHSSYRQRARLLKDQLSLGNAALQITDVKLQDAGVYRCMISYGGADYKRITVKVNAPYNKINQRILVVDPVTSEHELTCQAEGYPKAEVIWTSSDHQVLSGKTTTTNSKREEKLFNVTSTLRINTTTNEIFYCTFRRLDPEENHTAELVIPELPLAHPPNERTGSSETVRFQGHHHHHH

In order of rising IC50:
1. Cc1c(COc2cc(OCc3cccc(C#N)c3)c(CN[C@H](CCO)C(=O)O)cc2Cl)cccc1-c1ccc2c(c1)OCCO2 [Example 1205, (R)-2-((5-chloro-2-((3-cyanobenzyl)oxy)-4-((3-(2,3-dihydrobenzo[b][1,4]dioxin-6-yl)-2-methylbenzyl)oxy)benzyl)amino)-4-hydroxybutanoic acid]  0.00271 µM
2. Cc1c(COc2cc(OCc3cccc(C#N)c3)c(CNC(C(=O)O)C(C)(C)O)cc2Cl)cccc1-c1ccc2c(c1)OCCO2 (stereo not shown) [Example 1210, 2-((5-chloro-2-((3-cyanobenzyl)oxy)-4-((3-(2,3-dihydrobenzo[b][1,4]dioxin-6-yl)-2-methylbenzyl)oxy)benzyl)amino)-3-hydroxy-3-methylbutanoic acid]  0.0127 µM

same assay, conditions: PD-1/PD-L1 HTRF binding assay; value given as range class; read-out: Range or IC50

`Cc1c(COc2cc(OCc3cccc(C#N)c3)c(CN[C@H](Cc3cscn3)C(=O)O)cc2Cl)cccc1-c1ccc2c(c1)OCCO2` [Example 1206, (R)-2-((5-chloro-2-((3-cyanobenzyl)oxy)-4-((3-(2,3-dihydrobenzo[b][1,4]dioxin-6-yl)-2-methylbenzyl)oxy)benzyl)amino)-3-(thiazol-4-yl)propanoic acid] and `Cc1c(COc2cc(OCc3cccc(C#N)c3)c(CN[C@@H](Cc3cscn3)C(=O)O)cc2Cl)cccc1-c1ccc2c(c1)OCCO2` [Example 1208, (S)-2-((5-chloro-2-((3-cyanobenzyl)oxy)-4-((3-(2,3-dihydrobenzo[b][1,4]dioxin-6-yl)-2-methylbenzyl)oxy)benzyl)amino)-3-(thiazol-4-yl)propanoic acid] fall in the same range of IC50: 0.0006 to 0.01 µM for the first, 0.0006 to 0.01 µM for the second.

Compared with `Cc1c(COc2cc(OCc3cccc(C#N)c3)c(CN[C@@H](Cc3cncn3C)C(=O)O)cc2Cl)cccc1-c1ccc2c(c1)OCCO2` [Example 1207, (S)-2-((5-chloro-2-((3-cyanobenzyl)oxy)-4-((3-(2,3-dihydrobenzo[b][1,4]dioxin-6-yl)-2-methylbenzyl)oxy)benzyl)amino)-3-(1-methyl-1H-imidazol-5-yl)propanoic acid], `Cc1c(COc2cc(OCc3cccc(C#N)c3)c(CNC(CO)(C(=O)O)C(C)C)cc2Cl)cccc1-c1ccc2c(c1)OCCO2` (stereo not shown) [Example 1214, 2-((5-chloro-2-((3-cyanobenzyl)oxy)-4-((3-(2,3-dihydrobenzo[b][1,4]dioxin-6-yl)-2-methylbenzyl)oxy)benzyl)amino)-2-(hydroxymethyl)-3-methylbutanoic acid] is lower in IC50: 0.01 to 0.1 µM for the first, 0.0006 to 0.01 µM for the second.

`Cc1c(COc2cc(OCc3cccc(C#N)c3)c(CNC(C(=O)O)c3c[nH]c4ccccc34)cc2Cl)cccc1-c1ccc2c(c1)OCCO2` (stereo not shown) [Example 1211, 2-((5-chloro-2-((3-cyanobenzyl)oxy)-4-((3-(2,3-dihydrobenzo[b][1,4]dioxin-6-yl)-2-methylbenzyl)oxy)benzyl)amino)-2-(1H-indol-3-yl)acetic acid] and `Cc1c(COc2cc(OCc3cccc(C#N)c3)c(CN3C[C@H](F)C[C@H]3C(=O)O)cc2Cl)cccc1-c1ccc2c(c1)OCCO2` [Example 1215, (2S,4R)-1-(5-chloro-2-((3-cyanobenzyl)oxy)-4-((3-(2,3-dihydrobenzo[b][1,4]dioxin-6-yl)-2-methylbenzyl)oxy)benzyl)-4-fluoropyrrolidine-2-carboxylic acid] fall in the same range of IC50: 0.01 to 0.1 µM for the first, 0.01 to 0.1 µM for the second.

First: Cc1c(COc2cc(OCc3cccc(C#N)c3)c(CNCC(O)CN3CCOCC3)cc2Cl)cccc1-c1ccc2c(c1)OCCO2 (stereo not shown) [Example 1212, 3-((4-chloro-5-((3-(2,3-dihydrobenzo[b][1,4]dioxin-6-yl)-2-methylbenzyl)oxy)-2-(((2-hydroxy-3-morpholinopropyl)amino)methyl)phenoxy)methyl)benzonitrile]
Second: Cc1c(COc2cc(OCc3cccc(C#N)c3)c(CN3CCOCC3C(=O)O)cc2Cl)cccc1-c1ccc2c(c1)OCCO2 (stereo not shown) [Example 1213, 4-(5-chloro-2-((3-cyanobenzyl)oxy)-4-((3-(2,3-dihydrobenzo[b][1,4]dioxin-6-yl)-2-methylbenzyl)oxy)benzyl)morpholine-3-carboxylic acid]
The IC50 of the first is lower: 0.0006 to 0.01 µM for the first, 0.01 to 0.1 µM for the second. The first is the more potent here.
